How the values were obtained:
USP25 = USP25 (Homo sapiens (Human), UniProt Q9UHP3); assay: Ubiquitin-Rhodamine 110 Assay for USP25 Activity; format: biochemical
Experimental: The assay was performed in a final volume of 9 μL in assay buffer containing 20 mM Tris-HCl (pH 8.0, (1M Tris-HC1, pH 8.0 solution; Corning 46-031-CM)), 3 mM BME (2-Mercaptoethanol; Sigma 63689-25ML-F), 0.03% BGG (0.22 μM filtered, Sigma, G7516-25G), and 0.01% Triton X-100 (Sigma, T9284-10L). Nanoliter quantities of 10-point, 3-fold serial dilution in DMSO was pre-dispensed into 1536 assay plates (Corning, #3724BC) for a final test concentration of 25 μM to 1.3 nM, top to lowest dose, respectively. Enzyme USP25, construct USP25-His6, (Boston Biochem E-546). Concentration and incubation times were optimized for the maximal signal-to-background while maintaining initial velocity conditions at a fixed substrate concentration. The final concentration of the enzyme in the assay was 75 pM. […] 3 μL of 2× enzyme was added to assay plates (pre-stamped with compound) preincubated with […] for 30 minutes and then 3 μL of 2× Ub-Rh110 was added to assay plates. Plates were incubated for 45 minutes at room temperature before addition of 3 μL of stop solution (final concentration of 10 mM citric acid (Sigma, 251275-500G)). Fluorescence was read on the Envision (Excitation at 485 nm and Emission at 535 nm; Perkin Elmer) or on the PheraSTAR (Excitation at 485 nm and Emission at 535 nm; BMG Labtech).
(§1) For both the USP28 and USP25 assay formats, data were reported as percent inhibition compared with control wells based on the following equation: % inh=1-((FLU-AveLow)/(AveHigh−AveLow)) where FLU=measured Fluorescence, AveLow=average Fluorescence of no enzyme control (n=16), and AveHigh=average Fluorescence of DMSO control (n=16). IC50 values were determined by curve fitting of the standard 4 parameter logistic fitting algorithm included in the Activity Base software package: IDBS XE Designer Model205. Data is fitted using the Levenburg Marquardt algorithm.

USP28 = USP28 (Homo sapiens (Human), UniProt Q96RU2); assay: Ubiquitin-Rhodamine 110 Assay for USP28 Activity; format: biochemical
USP28, sequence (Q96RU2 whole entry): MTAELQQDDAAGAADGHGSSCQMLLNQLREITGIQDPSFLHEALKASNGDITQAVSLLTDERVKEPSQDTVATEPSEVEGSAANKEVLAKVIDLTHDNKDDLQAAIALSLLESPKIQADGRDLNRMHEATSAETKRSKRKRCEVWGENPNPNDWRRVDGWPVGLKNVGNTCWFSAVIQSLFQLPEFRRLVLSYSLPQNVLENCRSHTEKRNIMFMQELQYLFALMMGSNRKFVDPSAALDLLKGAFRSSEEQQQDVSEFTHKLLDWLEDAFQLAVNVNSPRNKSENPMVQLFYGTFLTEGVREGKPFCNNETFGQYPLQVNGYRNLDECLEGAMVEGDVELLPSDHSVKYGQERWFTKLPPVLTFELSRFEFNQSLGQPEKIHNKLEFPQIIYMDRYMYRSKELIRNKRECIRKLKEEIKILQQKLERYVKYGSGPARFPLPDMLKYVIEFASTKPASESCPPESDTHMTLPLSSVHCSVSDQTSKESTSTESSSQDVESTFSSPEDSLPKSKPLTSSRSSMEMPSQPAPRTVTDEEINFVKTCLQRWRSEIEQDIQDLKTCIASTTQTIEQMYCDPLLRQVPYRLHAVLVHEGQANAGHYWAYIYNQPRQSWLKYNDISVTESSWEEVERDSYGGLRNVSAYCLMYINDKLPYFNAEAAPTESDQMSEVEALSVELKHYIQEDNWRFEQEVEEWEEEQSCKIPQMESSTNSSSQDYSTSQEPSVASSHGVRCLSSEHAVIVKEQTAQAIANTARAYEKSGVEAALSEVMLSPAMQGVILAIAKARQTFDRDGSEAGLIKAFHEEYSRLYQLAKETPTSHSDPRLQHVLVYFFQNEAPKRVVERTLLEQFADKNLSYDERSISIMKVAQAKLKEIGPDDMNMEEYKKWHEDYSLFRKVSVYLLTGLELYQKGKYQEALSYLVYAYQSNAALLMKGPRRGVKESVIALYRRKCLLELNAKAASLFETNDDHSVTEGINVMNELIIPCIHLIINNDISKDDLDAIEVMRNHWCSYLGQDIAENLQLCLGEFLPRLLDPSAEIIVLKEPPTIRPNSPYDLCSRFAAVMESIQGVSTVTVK
Experimental: The assay was performed in a final volume of 20 μL in assay buffer containing 20 mM Tris-HCl (pH 8.0, (1M Tris-HCl, pH 8.0 solution; Corning 46-031-CM)), 2 mM CaCl2 (1M Calcium Chloride solution; Sigma #21114) 2 mM BME (2-Mercaptoethanol; Sigma 63689-25ML -F), 0.01% Prionex (0.22 μM filtered, Sigma #G-0411), and 0.01% Triton X-100. Stock compound solutions were stored at −20° C. as 10 mM in DMSO. Up to 1 month prior to the assay, 2 mM test compounds were pre-dispensed into assay plates (Black, low volume; Corning #3820) and frozen at −20° C. Prestamped assay plates were allowed to come to room temperature on the day of the assay. For the screen, 100 nL of 2 mM was pre-dispensed for a final screening concentration of 10 μM (DMSO(fc)=0.5%). […] Plates were incubated stacked for 90 minutes at room temperature before fluorescence was read on the Envision (Excitation at 485 nm and Emission at 535 nm; Perkin Elmer) or on the PheraSTAR (Excitation at 485 nm and Emission at 535 nm; BMG Labtech).
For follow-up studies, the assay was performed in a final volume of 15 μL in assay buffer containing 20 mM Tris-HCl (pH 8.0, (1M Tris-HCl, pH 8.0 solution; Corning 46-031-CM)), 3 mM BME (2-Mercaptoethanol; Sigma 63689-25ML-F), 0.03% BGG (0.22 μM filtered, Sigma, G7516-25G), and 0.01% Triton X-100 (Sigma, T9284-10L). Nanoliter quantities of either an 8-point or 10-point, 3-fold serial dilution in DMSO was pre-dispensed into assay plates (Perkin Elmer, ProxiPlate-384 F Plus) for a final test concentration of either 25 μM to 11 nM or 25 μM to 1.3 nM, respectively. Enzyme USP28, construct USP28 (USP28-5(1-1077)-TEV-6*His; LifeSensors) concentration and incubation times were optimized for the maximal signal-to -background while maintaining initial velocity conditions at a fixed substrate concentration. The final concentration of the enzyme in the assay was 75 pM. […] 5 μL of 2× enzyme was added to assay plates (pre-stamped with compound) preincubated with USP28 for 30 minutes and then 5 μL of 2× Ub-Rh110 was added to assay plates. Plates were incubated stacked for 20 min at room temperature before 5 μL of stop solution was added (final concentration of 10 mM citric acid (Sigma, 251275-500G)). Fluorescence was read on the Envision (Excitation at 485 nm and Emission at 535 nm; Perkin Elmer) or on the PheraSTAR (Excitation at 485 nm and Emission at 535 nm; BMG Labtech).
as §1

USP25, sequence (Q9UHP3 whole entry): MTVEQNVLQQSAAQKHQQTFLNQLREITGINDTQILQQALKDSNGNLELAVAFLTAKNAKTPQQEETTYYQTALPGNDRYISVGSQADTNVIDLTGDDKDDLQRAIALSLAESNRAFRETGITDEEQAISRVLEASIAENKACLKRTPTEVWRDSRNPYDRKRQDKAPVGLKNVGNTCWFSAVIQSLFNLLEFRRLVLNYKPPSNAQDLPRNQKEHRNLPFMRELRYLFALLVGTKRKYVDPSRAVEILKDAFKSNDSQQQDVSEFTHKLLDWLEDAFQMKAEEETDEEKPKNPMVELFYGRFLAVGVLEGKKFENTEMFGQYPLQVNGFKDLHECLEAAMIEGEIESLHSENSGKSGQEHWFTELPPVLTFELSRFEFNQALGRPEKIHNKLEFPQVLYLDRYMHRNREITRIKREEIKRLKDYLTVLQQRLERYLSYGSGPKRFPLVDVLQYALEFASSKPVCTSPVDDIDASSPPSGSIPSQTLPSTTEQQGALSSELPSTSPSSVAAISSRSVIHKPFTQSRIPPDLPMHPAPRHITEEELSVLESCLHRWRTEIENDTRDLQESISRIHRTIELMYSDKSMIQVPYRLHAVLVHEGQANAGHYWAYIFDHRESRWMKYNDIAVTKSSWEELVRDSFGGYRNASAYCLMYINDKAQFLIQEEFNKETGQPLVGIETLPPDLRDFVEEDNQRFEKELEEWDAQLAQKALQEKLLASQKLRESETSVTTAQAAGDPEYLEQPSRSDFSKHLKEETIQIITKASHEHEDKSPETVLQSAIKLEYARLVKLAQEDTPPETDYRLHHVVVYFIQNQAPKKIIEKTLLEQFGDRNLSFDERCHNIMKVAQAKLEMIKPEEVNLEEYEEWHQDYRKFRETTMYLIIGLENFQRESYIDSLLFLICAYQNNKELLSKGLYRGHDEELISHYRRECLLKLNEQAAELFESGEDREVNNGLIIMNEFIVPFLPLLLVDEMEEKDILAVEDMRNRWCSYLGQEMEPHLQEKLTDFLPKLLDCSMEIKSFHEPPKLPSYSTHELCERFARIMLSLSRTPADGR

| Compound | IC50 (USP25) | IC50 (USP28) |
| --- | --- | --- |
| Cc1ccc2c(N)c(C(=O)NCCc3ccc(CC(=O)O)cc3)sc2n1 [Example I-174] | 2000 to 10000 nM | 200 to 2000 nM |
| Cc1ccc2c(N)c(C(=O)NCCc3ccc(N4CCNCC4)cc3Cl)sc2n1 [Example I-76] | 200 to 2000 nM | < 200 nM |
| Cc1ccc2c(N)c(C(=O)NCCc3ccc(N4CCN[C@@H](C)C4)cc3)sc2n1 [Example I-121, (S)-3-amino-6-methyl-N-(4-(3-methylpiperazin-1-yl)phenethyl)thieno[2,3-b]pyridine-2-carboxamide] | 200 to 2000 nM | 200 to 2000 nM |
| Cc1ccc2c(N)c(C(=O)NCCc3ccc(N4CCNCC4)c(OC(F)F)c3)sc2n1 [Example I-73, 3-Amino-N-(3-(difluoromethoxy)-4-(piperazin-1-yl)phenethyl)-6-methylthieno[2,3-b]pyridine-2-carboxamide] | 200 to 2000 nM | 200 to 2000 nM |
| Cc1ccc2c(N)c(C(=O)NCCc3ccc(N4CCNCC4)cc3-c3ccccc3)sc2n1 [Example I-82] | < 200 nM | < 200 nM |
| COCCN1CCN(c2ccc(CCNC(=O)c3sc4nc(C)ccc4c3N)cc2)CC1 [Compound I-26] | 2000 to 10000 nM | 200 to 2000 nM |
| CNC1CN(c2cc(F)c(CCNC(=O)c3sc4nc(C)ccc4c3N)cc2F)C1 [Example I-199, 3-Amino-N-(2,5-difluoro-4-(3-(methylamino)azetidin-1-yl)phenethyl) -6-methylthieno[2,3-b]pyridine-2-carboxamide] | 200 to 2000 nM | 200 to 2000 nM |
| CCc1nc2sc(C(=O)NCCc3ccc(N4CCNCC4)cc3)c(N)c2cc1F [Compound I-206] | < 200 nM | < 200 nM |
| CCOc1ccc2c(N)c(C(=O)NCCc3ccc(N4CCNCC4)cc3)sc2n1 [Example I-191] | 2000 to 10000 nM | 200 to 2000 nM |
| Cc1ccc2c(N)c(C(=O)NCCc3ccc(N4CC5CCC(C4)N5)c(F)c3)sc2n1 [Example I-88] | 200 to 2000 nM | < 200 nM |
| Cc1nc2sc(C(=O)NC[C@@H](C)c3ccc(N4CC5CCC(C4)N5)c(F)c3)c(N)c2cc1F (single isomer, unassigned) [Example I-107] | 10000 to 25000 nM | 200 to 2000 nM |
| COc1cc(C)nc2sc(C(=O)NCCc3ccc(N4CCNCC4)cc3)c(N)c12 [Compound I-24] | 10000 to 25000 nM | 2000 to 10000 nM |
| Cc1ccc2c(N)c(C(=O)NCCc3ccc(C4CCNCC4)cc3F)sc2n1 [Compound I-170] | 200 to 2000 nM | < 200 nM |
| Cc1ccc2c(N)c(C(=O)NCCc3ccc(N4CCNCC4)cc3C3CC3)sc2n1 [Example I-81] | < 200 nM | < 200 nM |
| Cc1nc2sc(C(=O)NC[C@H](C)c3ccc(N4CC5CCC(C4)N5)c(F)c3)c(N)c2cc1F (single isomer, unassigned) [Example I-108] | 200 to 2000 nM | 200 to 2000 nM |
| Nc1c(C(=O)NCCc2ccc(C3CCNCC3)cc2)sc2nc(Cl)ccc12 [Compound I-60] | 200 to 2000 nM | 200 to 2000 nM |
| Cc1nc2sc(C(=O)NC[C@H](C)c3cc(F)c(N4CC5CCC(C4)N5)cc3F)c(N)c2cc1F (single isomer, unassigned) [Example I-112] | 2000 to 10000 nM | 200 to 2000 nM |
| Nc1c(C(=O)NCCc2ccc(N3CCNCC3)cc2)sc2ncc3c(c12)CCC3 [Compound I-28] | 2000 to 10000 nM | 2000 to 10000 nM |

| Compound | IC50 (USP25) | IC50 (USP28) |
| --- | --- | --- |
| Cc1nc2sc(C(=O)NC[C@H](C)c3cc(F)c(N4CCNCC4)cc3F)c(N)c2cc1F [Example I-100] | 2000 to 10000 nM | 200 to 2000 nM |
| CCc1ccc2c(N)c(C(=O)NCCc3cc(F)c(N4CCNCC4)cc3F)sc2n1 [Compound I-48] | < 200 nM | < 200 nM |
| Cc1ccc2c(N)c(C(=O)NCCc3ccc(N4CCNCC4)cc3C)sc2n1 [Example I-89] | 200 to 2000 nM | < 200 nM |
| COc1ccc2c(N)c(C(=O)NCCc3ccc(N4CCNCC4)cc3)sc2n1 [Example I-190, 3-Amino-6-methoxy-N-(4-(piperazin-1-yl)phenethyl)thieno[2,3-b]pyridine-2-carboxamide] | 200 to 2000 nM | 200 to 2000 nM |
| Cc1ccc2c(N)c(C(=O)NCCc3ccc(C(=O)O)cc3)sc2n1 [Example I-173, 4-(2-(3-Amino-6-methylthieno[2,3-b]pyridine-2-carboxamido)ethyl)benzoic acid] | 200 to 2000 nM | 200 to 2000 nM |
| Nc1c(C(=O)NCCc2ccc(N3CCNCC3)c(Cl)c2)sc2nc(C(F)F)ccc12 [Example I-179, 3-Amino-N-(3-chloro-4-(piperazin-1-yl)phenethyl)-6-(difluoromethyl)thieno[2,3-b]pyridine-2-carboxamide] | 2000 to 10000 nM | 2000 to 10000 nM |
| Cc1ccc2c(N)c(C(=O)NCCc3ccc(N4CCNCC4)c(-c4ccc(C(=O)N5CCCC5)cc4)c3)sc2n1 [Example I-165] | 10000 to 25000 nM | 200 to 2000 nM |
| Cc1ccc2c(N)c(C(=O)NC[C@H](C)c3cc(F)c(N4CCNCC4)cc3F)sc2n1 [Example I-208] | 2000 to 10000 nM | 200 to 2000 nM |
| Cc1ccc2c(N)c(C(=O)NC[C@@H](C)c3ccc(N4CC5CCC(C4)N5)cc3F)sc2n1 (single isomer, unassigned) [Example I-103] | 200 to 2000 nM | 200 to 2000 nM |
| Cc1ccc2c(N)c(C(=O)NC[C@@H](C)c3ccc(N4CC5CCC(C4)N5)c(C#N)c3)sc2n1 (single isomer, unassigned) [Example I-109] | 2000 to 10000 nM | 200 to 2000 nM |
| C[C@H](O)c1ccc2c(N)c(C(=O)NCCc3ccc(N4CCNCC4)cc3)sc2n1 (single isomer, unassigned) [Example I-221] | 10000 to 25000 nM | 10000 to 25000 nM |
| Nc1nc2sc(C(=O)NCCc3ccc(N4CCNCC4)cc3)c(N)c2cc1F [Example I-115, 3,6-Diamino-5-fluoro-N-(4-(piperazin-1-yl)phenethyl)thieno[2,3-b]pyridine-2-carboxamide] | 200 to 2000 nM | < 200 nM |
| Cc1ccc2c(N)c(C(=O)NC[C@H](C)c3cc(F)c(N4CC5CCC(C4)N5)cc3F)sc2n1 (single isomer, unassigned) [Example I-98] | 200 to 2000 nM | < 200 nM |
| Cc1ccc2c(N)c(C(=O)NCCc3ccc(N4CCNCC4)c(-c4cnn(C(F)F)c4)c3)sc2n1 [Example I-152, 3-Amino-N-(3-(1-(difluoromethyl)-1H-pyrazol-4-yl)-4-(piperazin-1-yl)phenethyl)-6-methylthieno[2,3-b]pyridine-2-carboxamide] | 10000 to 25000 nM | 2000 to 10000 nM |
| Cc1ccc2c(N)c(C(=O)NCCc3ccc([C@H]4CCNC4)cc3)sc2n1 (single isomer, unassigned) [Example I-180] | 200 to 2000 nM | < 200 nM |
| Cc1ccc2c(N)c(C(=O)NCCc3ccc(N4C5CNCC4C5)cc3)sc2n1 [Compound I-64] | < 200 nM | < 200 nM |
| Cc1ccc2c(N)c(C(=O)NCCc3ccc(-c4cnn5c4CNCC5)cc3)sc2n1 [Compound I-12] | 200 to 2000 nM | < 200 nM |
